Measurements taken from patent US9402395B2, “Insecticidal compounds” (Syngenta Participations AG, priority 2013, dated 2016).

Legend:
Type in all cases: in vivo
[1] = tested on: Spodoptera littoralis; experiment: Spodoptera littoralis (Egyptian cotton leafworm) cotton leaf disc spray test; settings: foliar, 72 h, application rate of 200 ppm, cotton leaf discs, L1 larvae, mortality, feeding behavior, growth regulation 3 days after treatment
Description: Spodoptera littoralis (Egyptian cotton leafworm): Cotton leaf discs were placed on agar in a 24-well microtiter plate and sprayed with test solutions at an application rate of 200 ppm. After drying, the leaf discs were infested with 5 L1 larvae. The samples were checked for mortality, feeding behavior, and growth regulation 3 days after treatment (DAT).

[2] = tested on: Plutella xylostella; experiment: Plutella xylostella (Diamond back moth) larva test on artificial diet; settings: 144 h, application rate of 200 ppm (concentration in well 18 ppm), L2 larvae, larval mortality and growth regulation after 6 days
Protocol: (§1) Plutella xylostella (Diamond back moth): 24-well microtiter plate (MTP) with artificial diet was treated with test solutions at an application rate of 200 ppm (concentration in well 18 ppm) by pipetting. After drying, the MTP's were infested with L2 larvae (7-12 per well). After an incubation period of 6 days, samples were checked for larval mortality and growth regulation.

[3] = tested on: Thrips tabaci; experiment: Thrips tabaci (Onion thrips) sunflower leaf disc spray test; settings: foliar, 168 h, application rate of 200 ppm, sunflower leaf discs, population of mixed ages, mortality after 7 days
Protocol: Thrips tabaci (Onion thrips): Sunflower leaf discs were placed on agar in a 24-well microtiter plate and sprayed with test solutions at an application rate of 200 ppm. […] After an incubation period of 7 days, samples were checked for mortality.

[4] = tested on: Tetranychus urticae; experiment: Tetranychus urticae (Two-spotted spider mite) bean leaf disc spray test; settings: foliar, 192 h, application rate of 200 ppm, bean leaf discs, mite populations of mixed ages, egg, larval and adult mortality 8 days later
Description: Tetranychus urticae (Two-spotted spider mite): Bean leaf discs on agar in 24-well microtiter plates were sprayed with test solutions at an application rate of 200 ppm. After drying, the leaf discs are infested with mite populations of mixed ages. 8 days later, discs are checked for egg mortality, larval mortality, and adult mortality.

[5] = tested on: Myzus persicae; experiment: Myzus persicae (Green peach aphid) sunflower leaf disc spray test; settings: foliar, 144 h, application rate of 200 ppm, sunflower leaf discs, aphid population of mixed ages, mortality after 6 DAT
Protocol: Myzus persicae (Green peach aphid): Sunflower leaf discs were placed on agar in a 24-well microtiter plate and sprayed with test solutions at an application rate of 200 ppm. After drying, the leaf discs were infested with an aphid population of mixed ages. After an incubation period of 6 DAT, samples were checked for mortality.

[6] = tested on: Heliothis virescens; experiment: Heliothis virescens (Tobacco budworm) egg/larva test on artificial diet; settings: 96 h, application rate of 200 ppm (concentration in well 18 ppm), eggs 0-24 h old on artificial diet, egg mortality, larval mortality, growth regulation after 4 days
Protocol: Heliothis virescens (Tobacco budworm): Eggs (0-24 h old) were placed in 24-well microtiter plate on artificial diet and treated with test solutions at an application rate of 200 ppm (concentration in well 18 ppm) by pipetting. After an incubation period of 4 days, samples were checked for egg mortality, larval mortality, and growth regulation.

[7] = tested on: Diabrotica balteata; experiment: Diabrotica balteata (Corn root worm) larva test on artificial diet; settings: 120 h, application rate of 200 ppm (concentration in well 18 ppm), L2 larvae, larval mortality and growth regulation after 5 days
Protocol: as §1, with “Diabrotica balteata (Corn root worm): A” for “Plutella xylostella (Diamond back moth):”, “(6-10” for “(7-12”, “5” for “6”

Measured: pest or weed control at 200 ppm

CCCN(C(=O)c1ccc[n+]([O-])c1)c1cccc(C(=O)N(C)c2c(Cl)cc(C(F)(C(F)(F)F)C(F)(F)F)cc2Br)c1F [Compound 1, N′-[3-[[2-bromo-6-chloro-4-[1,1,1,2,3,3,3-heptafluoro-prop-2-yl]phenyl]-N′-methyl-carbamoyl]-2-fluoro-phenyl]-N-propyl-1-oxido-pyridin-1-ium-3-carboxamide]
not listed: [6] | [7]
≥ 80%: all other assays above

CCc1cc(C(F)(C(F)(F)F)C(F)(F)F)cc(Br)c1N(C)C(=O)c1cccc(N(C)C(=O)c2cccnc2)c1F [Compound 2]
≥ 80%: all assays above

Cc1cc(C(F)(C(F)(F)F)C(F)(F)F)cc(Br)c1N(C)C(=O)c1cccc(N(C)C(=O)c2cccnc2)c1F [Compound 3]
not listed: [4]
≥ 80%: all other assays above

CN(C(=O)c1cccnc1)c1cccc(C(=O)Nc2c(Cl)cc(C(F)(C(F)(F)F)C(F)(F)F)cc2Br)c1F [Compound 4]
not listed: [1]
≥ 80%: all other assays above

CN(C(=O)c1ccc[n+]([O-])c1)c1cccc(C(=O)Nc2c(Cl)cc(C(F)(C(F)(F)F)C(F)(F)F)cc2Br)c1F [Compound 5]
not listed: [3]
≥ 80%: all other assays above

CCN(C(=O)c1cccnc1)c1cccc(C(=O)Nc2c(Cl)cc(C(F)(C(F)(F)F)C(F)(F)F)cc2Br)c1F [Compound 6]
≥ 80%: all assays above

CCN(C(=O)c1ccc[n+]([O-])c1)c1cccc(C(=O)Nc2c(Cl)cc(C(F)(C(F)(F)F)C(F)(F)F)cc2Br)c1F [Compound 7]
not listed: [3]
≥ 80%: all other assays above

CCCN(C(=O)c1cccnc1)c1cccc(C(=O)Nc2c(Cl)cc(C(F)(C(F)(F)F)C(F)(F)F)cc2Cl)c1 [Compound 8]
not listed: [4]
≥ 80%: all other assays above

CCCN(C(=O)c1ccc[n+]([O-])c1)c1cccc(C(=O)Nc2c(Cl)cc(C(F)(C(F)(F)F)C(F)(F)F)cc2Cl)c1 [Compound 9]
≥ 80%: [6] | [2] | [3] | [5]

CCN(C(=O)c1cccnc1)c1cccc(C(=O)Nc2c(Br)cc(C(F)(C(F)(F)F)C(F)(F)F)cc2Br)c1F [Compound 11]
≥ 80%: all assays above

CN(C(=O)c1cccnc1)c1cccc(C(=O)Nc2c(Br)cc(C(F)(C(F)(F)F)C(F)(F)F)cc2Br)c1F [Compound 12]
≥ 80%: all assays above

CCN(C(=O)c1ccc[n+]([O-])c1)c1cccc(C(=O)Nc2c(Br)cc(C(F)(C(F)(F)F)C(F)(F)F)cc2Br)c1F [Compound 13]
≥ 80%: all assays above

CN(C(=O)c1cccnc1)c1cccc(C(=O)N(C)c2c(Br)cc(C(F)(C(F)(F)F)C(F)(F)F)cc2Br)c1 [Compound 15]
not listed: [4] | [7]
≥ 80%: all other assays above

CCN(C(=O)c1cccnc1)c1cccc(C(=O)Nc2c(Cl)cc(C(F)(C(F)(F)F)C(F)(F)F)cc2Cl)c1F [Compound 16]
≥ 80%: all assays above

Cc1cc(C(F)(C(F)(F)F)C(F)(F)F)cc(Cl)c1NC(=O)c1cccc(N(C)C(=O)c2cccnc2)c1F [Compound 17]
≥ 80%: all assays above

CCN(C(=O)c1cccnc1)c1cccc(C(=O)Nc2c(C)cc(C(F)(C(F)(F)F)C(F)(F)F)cc2Cl)c1F [Compound 18]
≥ 80%: all assays above
